System: SUDHL-6 cell line (diffuse large B cell lymphoma)
Experiment: SUDHL-6 cell proliferation assay (Example B3)
Type: cell-based
Conditions: Homo sapiens, SU-DHL-6, 72 h, SUDHL-6 cells, 3 days, Cell Titer-GLO
Procedure: Example B3: SUDHL-6 Cell Proliferation Assay
SUDHL-6 cell line (diffuse large B cell lymphoma) was purchased from ATCC (Manassas, Va.) and maintained in the culture medium recommended (RPMI and 10% FBS). To measure the anti-proliferation activity of the compounds through ATP quantitation, the SUDHL-6 cells was plated with the culture medium (5000 cells/well/per 200 μl) into 96-well polystyrene clear black tissue culture plate (Greiner-bio-one through VWR, NJ) in the presence or absence of a concentration range of test compounds. After 3 days, Cell Titer-GLO Luminescent (Promega, Madison, Wis.) cell culture agent was added to each well for 10 minutes at room temperature to stabilize the luminescent signal. This determines the number of viable cells in culture based on quantitation of the ATP present, which signals the presence of metabolically active cells. Luminescence was measured with the TopCount 384 (Packard Bioscience through Perkin Elmer, Boston, Mass.). […] IC50 data for the Examples is presented in Table 4 determined by the assay of Example B3.

| SMILES | IC50 |
| --- | --- |
| Cc1nn(C(C)c2cc(Cl)c(F)c3c2OC[C@H](C)N(S(C)(=O)=O)C3)c2ncnc(N)c12 (single isomer, unassigned) [Example 35] | ≤ 500 nM |
| Cc1nn(C(C)c2cc(Cl)c(F)c3c2O[C@@H](C)CN(C2CC(C(N)=O)C2)C3)c2ncnc(N)c12 (single isomer, unassigned) [Example 44] | ≤ 500 nM |
| CC(=O)N1CC(N2Cc3c(C#N)c(Cl)cc(C(C)n4nc(C)c5c(N)ncnc54)c3OC(C)C2)C1 (single isomer, unassigned) [Example 48, 4-(1-Acetylazetidin-3-yl)-9-[1-(4-amino-3-methyl-1H-pyrazolo [3,4-d]pyrimidin-1-yl)ethyl]-7-chloro-2-methyl-2,3,4,5-tetrahydro-1,4-benzoxazepine-6-carbonitrile] | 500 to 1000 nM |
| Cc1nn(C(C)c2cc(Cl)c(C#N)c3c2OC(C)CN(C2CN(CC(N)=O)C2)C3)c2ncnc(N)c12 (single isomer, unassigned) [Example 53, 2-{3-[9-[1-(4-Amino-3-methyl-1H-pyrazolo[3,4-d]pyrimidin-1-yl)ethyl]-7-chloro-6-cyano-2-methyl-2,3-dihydro-1,4-benzoxazepin-4(5H)-yl]azetidin-1-yl}acetamide] | ≤ 500 nM |
| Cc1nn(C(C)c2cc(Cl)c(C#N)c3c2OC(C)CN(C2CN(CC(C)(C)O)C2)C3)c2ncnc(N)c12 (single isomer, unassigned) [Example 54, 9-[1-(4-Amino-3-methyl-1H-pyrazolo[3,4-d]pyrimidin-1-yl)ethyl]-7-chloro-4-[1-(2-hydroxy-2-methylpropyl)azetidin-3-yl]-2-methyl-2,3,4,5-tetrahydro-1,4-benzoxazepine-6-carbonitrile] | ≤ 500 nM |
| Cc1nn(C(C)c2cc(Cl)c(C#N)c3c2OC(C)CN(Cc2cccnc2)C3)c2ncnc(N)c12 (single isomer, unassigned) [Example 60, 9-[1-(4-Amino-3-methyl-1H-pyrazolo[3,4-d]pyrimidin-1-yl)ethyl]-7-chloro-2-methyl-4-(pyridin-3-ylmethyl)-2,3,4,5-tetrahydro-1,4-benzoxazepine-6-carbonitrile] | ≤ 500 nM |
| Cc1nn(C(C)c2cc(Cl)c(C#N)c3c2OC(C)CN(CC(C)(C)O)C3)c2ncnc(N)c12 (single isomer, unassigned) [Example 65, 9-[1-(4-Amino-3-methyl-1H-pyrazolo[3,4-d]pyrimidin-1-yl)ethyl]-7-chloro-4-(2-hydroxy-2-methylpropyl)-2-methyl-2,3,4,5-tetrahydro-1,4-benzoxazepine-6-carbonitrile] | ≤ 500 nM |
| CC(=O)NC1CC(N2Cc3c(C#N)c(Cl)cc(C(C)n4nc(C)c5c(N)ncnc54)c3OC(C)C2)C1 (single isomer, unassigned) [Example 67, N-{3-[9-[1-(4-Amino-3-methyl-1H-pyrazolo[3,4-d]pyrimidin-1-yl)ethyl]-7-chloro-6-cyano-2-methyl-2,3-dihydro-1,4-benzoxazepin-4(5H)-yl]cyclobutyl}acetamide] | ≤ 500 nM |
| COC(=O)N1CC(N2Cc3c(F)c(Cl)cc(C(C)n4nc(C)c5c(N)ncnc54)c3OC(C)C2)C1 (single isomer, unassigned) [Example 80, methyl 3-[9-[1-(4-amino-3-methyl-1H-pyrazolo[3,4-d]pyrimidin-1-yl)ethyl]-7-chloro-6-fluoro-2-methyl-2,3-dihydro-1,4-benzoxazepin-4(5H)-yl]azetidine-1-carboxylate] | ≤ 500 nM |
| Cc1nn(C(C)c2cc(Cl)c(F)c3c2O[C@@H](C)CN(C2CN(CC(N)=O)C2)C3)c2ncnc(N)c12 (single isomer, unassigned) [Example 88] | ≤ 500 nM |
| Cc1nn(C(C)c2cc(Cl)c(C#N)c3c2OC(C)CN(C2CN(S(C)(=O)=O)C2)C3)c2ncnc(N)c12 (single isomer, unassigned) [Example 93, 9-[1-(4-amino-3-methyl-1H-pyrazolo[3,4-d]pyrimidin-1-yl)ethyl]-7-chloro-2-methyl-4-[1-(methylsulfonyl)azetidin-3-yl]-2,3,4,5-tetrahydro-1,4-benzoxazepine-6-carbonitrile] | ≤ 500 nM |
| CCC(=O)N1CC(N2Cc3c(C#N)c(Cl)cc(C(C)n4nc(C)c5c(N)ncnc54)c3OC(C)C2)C1 (single isomer, unassigned) [Example 95, 9-[1-(4-amino-3-methyl-1H-pyrazolo[3,4-d]pyrimidin-1-yl)ethyl]-7-chloro-2-methyl-4-(1-propionylazetidin-3-yl)-2,3,4,5-tetrahydro-1,4-benzoxazepine-6-carbonitrile] | ≤ 500 nM |

Next, values leading:

| IC50 | SMILES |
| --- | --- |
| ≤ 500 nM | Cc1nn(C(C)c2cc(Cl)c(F)c3c2OC(C)CN(C2CN(C(=O)OC(C)(C)C)C2)C3)c2ncnc(N)c12 (single isomer, unassigned) [Example 26, tert-Butyl 3-[9-[1-(4-amino-3-methyl-1H-pyrazolo[3,4-d]pyrimidin-1-yl)ethyl]-7-chloro-6-fluoro-2-methyl-2,3-dihydro-1,4-benzoxazepin-4(5H)-yl]azetidine-1-carboxylate] |
| ≤ 500 nM | Cc1nn(C(C)c2cc(Cl)c(C#N)c3c2OC(C)CN(C2CN(CC(N)=O)C2)C3)c2ncnc(N)c12 (single isomer, unassigned) [Example 50, 2-{3-[9-[1-(4-Amino-3-methyl-1H-pyrazolo[3,4-d]pyrimidin-1-yl)ethyl]-7-chloro-6-cyano-2-methyl-2,3-dihydro-1,4-benzoxazepin-4(5H)-yl]azetidin-1-yl}acetamide] |
| ≤ 500 nM | CCC1CN(CCO)Cc2c(C#N)c(Cl)cc(C(C)n3nc(C)c4c(N)ncnc43)c2O1 (single isomer, unassigned) [Example 69, 9-[1-(4-Amino-3-methyl-1H-pyrazolo[3,4-d]pyrimidin-1-yl)ethyl]-7-chloro-2-ethyl-4-(2-hydroxyethyl)-2,3,4,5-tetrahydro-1,4-benzoxazepine-6-carbonitrile] |
| ≤ 500 nM | Cc1nn(C(C)c2cc(Cl)c(F)c3c2OC(C)CN(C[C@@H](C)O)C3)c2ncnc(N)c12 (single isomer, unassigned) [Example 78] |
| ≤ 500 nM | Cc1nn(C(C)c2cc(Cl)c(F)c3c2OC(C)CN(C2CN(S(N)(=O)=O)C2)C3)c2ncnc(N)c12 (single isomer, unassigned) [Example 82, 3-[9-[1-(4-amino-3-methyl-1H-pyrazolo[3,4-d]pyrimidin-1-yl)ethyl]-7-chloro-6-fluoro-2-methyl-2,3-dihydro-1,4-benzoxazepin-4(5H)-yl]azetidine-1-sulfonamide] |
| ≤ 500 nM | Cc1nn(C(C)c2cc(Cl)c(F)c3c2OC(C)CN(C2CN(C(N)=O)C2)C3)c2ncnc(N)c12 (single isomer, unassigned) [Example 83, 3-[9-[1-(4-amino-3-methyl-1H-pyrazolo[3,4-d]pyrimidin-1-yl)ethyl]-7-chloro-6-fluoro-2-methyl-2,3-dihydro-1,4-benzoxazepin-4(5H)-yl]azetidine-1-carboxamide] |

Same assay, conditions: SUDHL-6 cells, 3 days, Cell Titer-GLO

| SMILES | IC50 |
| --- | --- |
| Cc1nn(C(C)c2cc(Cl)c(C#N)c3c2OC(C)CN(CC(C)(C)O)C3)c2ncnc(N)c12 (single isomer, unassigned) [Example 66, 9-[1-(4-Amino-3-methyl-1H-pyrazolo[3,4-d]pyrimidin-1-yl)ethyl]-7-chloro-4-(2-hydroxy-2-methylpropyl)-2-methyl-2,3,4,5-tetrahydro-1,4-benzoxazepine-6-carbonitrile] | ≤ 500 nM |
| CC(=O)NC1CC(N2Cc3c(C#N)c(Cl)cc(C(C)n4nc(C)c5c(N)ncnc54)c3OC(C)C2)C1 (single isomer, unassigned) [Example 68, N-{3-[9-[1-(4-Amino-3-methyl-1H-pyrazolo[3,4-d]pyrimidin-1-yl)ethyl]-7-chloro-6-cyano-2-methyl-2,3-dihydro-1,4-benzoxazepin-4(5H)-yl]cyclobutyl}acetamide] | ≤ 500 nM |
| Cc1nn(C(C)c2cc(Cl)c(F)c3c2OC(C)CN(C2CN(C(N)=O)C2)C3)c2ncnc(N)c12 (single isomer, unassigned) [Example 84, 3-[9-[1-(4-amino-3-methyl-1H-pyrazolo[3,4-d]pyrimidin-1-yl)ethyl]-7-chloro-6-fluoro-2-methyl-2,3-dihydro-1,4-benzoxazepin-4(5H)-yl]azetidine-1-carboxamide] | ≤ 500 nM |
| Cc1nn(C(C)c2cc(Cl)c(C#N)c3c2OC(C)CN(C2CN(S(C)(=O)=O)C2)C3)c2ncnc(N)c12 (single isomer, unassigned) [Example 94, 9-[1-(4-amino-3-methyl-1H-pyrazolo[3,4-d]pyrimidin-1-yl)ethyl]-7-chloro-2-methyl-4-[1-(methylsulfonyl)azetidin-3-yl]-2,3,4,5-tetrahydro-1,4-benzoxazepine-6-carbonitrile] | ≤ 500 nM |

Now from value to compound:

| IC50 | SMILES |
| --- | --- |
| ≤ 500 nM | Cc1nn(C(C)c2cc(Cl)c(C#N)c3c2OC(C)CN(C2CN(CC(C)(C)O)C2)C3)c2ncnc(N)c12 (single isomer, unassigned) [Example 55, 9-[1-(4-Amino-3-methyl-1H-pyrazolo[3,4-d]pyrimidin-1-yl)ethyl]-7-chloro-4-[1-(2-hydroxy-2-methylpropyl)azetidin-3-yl]-2-methyl-2,3,4,5-tetrahydro-1,4-benzoxazepine-6-carbonitrile] |
| ≤ 500 nM | CCC1CN(CCO)Cc2c(C#N)c(Cl)cc(C(C)n3nc(C)c4c(N)ncnc43)c2O1 (single isomer, unassigned) [Example 70, 9-[1-(4-Amino-3-methyl-1H-pyrazolo[3,4-d]pyrimidin-1-yl)ethyl]-7-chloro-2-ethyl-4-(2-hydroxyethyl)-2,3,4,5-tetrahydro-1,4-benzoxazepine-6-carbonitrile] |
